Test results: the SangsterLogP compilation

Conditions: pH 7.4

NS(=O)(=O)c1cc2cc(C(=O)NCC(O)CO)sc2s1 (configuration not stated) showed a logD of 0.35.

Molecule CS(=O)CCNC(=O)c1cc2cc(S(N)(=O)=O)sc2s1 (configuration not stated) has a logD of -0.15.
